Assay results: patent publication US9598463B2, “Mucin hypersecretion inhibitors and methods of use” (BIOMARCK PHARMACEUTICALS, LTD., priority 2005, dated 2017)
Marks after values point to notes of the source that are not given here. Where a SMILES comes first, the peptide text is derived from it. The star is where a group is joined. Myristoyl = CCCCCCCCCCCCCC(=O)*

Tests used:
[1] = system: methacholine-induced mucin hypersecretion; test: Methacholine-induced mucin hypersecretion in ovalbumin-sensitized mouse model of asthma, BAL mucin ELISA (Balb/C mice); type: in vivo; details: for Mucin Secretion % control: peptides at 100 μM; for Mucin Secretion % of control: Table IV, peptide 100 μM
How it was run: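 BP2 or Balb/C mice immunized s.c. twice weekly with 1 μg ovalbumin, aerosol ovalbumin challenge after 14 days, then aerosolized methacholine 72 h later. Anti-MUC5AC ELISA on cell-free BAL, minus non-immune antibody signal, normalized to Bradford protein; 6 mice per group.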

[2] = system: methacholine-induced mucin hypersecretion; test: Methacholine-induced mucin hypersecretion in ovalbumin-sensitized mouse model of asthma, BAL mucin ELISA (BP2 mice); type: in vivo
Description: (§1) Experiments were designed to test whether or not the MANS peptide and other test peptides related thereto inhibit hypersecretion of mucin in murine airway in vivo. The ovalbumin-sensitized mouse model of allergic inflammation and asthma used in these studies was as described by Singer et al. (2004), supra. As a negative control, a control peptide containing an N-terminal myristoyl group and the same amino acids as MANS peptide but arranged in random order (i.e., the random N-terminal sequence, RNS, myristoyl-peptide 232) was tested alongside the proposed active peptides. BP2 mice, aged 6-8 wks, were immunized subcutaneously twice at weekly intervals with 1 μg of ovalbumin. After 14 days of sensitization, the animals were exposed to aerosolized ovalbumin, which causes a pronounced goblet cell hyperplasia after 72 hours. At the 72 hr time point, the secretagogue, methacholine ([…]) was delivered using a Buxco system nebulizer providing a fine aerosol for 90 seconds. Fifteen min prior to the secretagogue challenge, 50 μL of the test peptide, at 3 different concentrations (10 μM, 100 μM, or 140 μM), was administered by intratracheal route. The RNS peptide was tested at the highest dose level only (50 μL of 140 μM solution). […] Each experiment was carried out in 6 mice per point, and each set of experiments was repeated 3 times. To test strain-to-strain variations, the above experiment was repeated in Balb/C mice under similar protocol. Both stimulated and unstimulated mucin secretion, in mice treated with […] sodium acetate (data not shown), were identical to saline control. Following the methacholine challenge, the animals were sacrificed and bronchoalveolar lavage (BAL) performed on 6 animals per group for analysis of secreted mucin.
(§2) Mice were sacrificed by cervical dislocation, followed by rapid exposure of the trachea and insertion of a cannula through a small incision. Bronchoalveolar lavage (BAL) fluid was collected with 0.5 ml followed by 3×1 ml PBS containing PMSF (5 mM), EDTA (5 mM), and DTT (5 mM). BAL fluid was separated into cell-free and cell fractions via brief centrifugation prior to any analyses being performed. The cell-free supernatants were analyzed for the presence of mucin via an ELISA method using anti-mucin antibodies shown to react with mouse mucin. Specifically, a mouse anti-MUC5AC antibody that recognizes the carbohydrate portion of secreted mucin was used in these assays. Data generated from each BAL sample were normalized to total protein as determined by Bradford assay. Mucin content was expressed as the value obtained with the anti-mucin antibody minus that obtained with the non-immune control antibody. All ELISA data were statistically examined using a one-way ANOVA.

[3] = system: methacholine-induced mucin hypersecretion; test: Duration of action of test peptides in a murine model of asthma; type: in vivo; details: Balb/C mice
Description: as §1, §2
Experiments were designed to determine the duration of action of test peptides in a murine model of asthma. As described in Method 1A, Balb/C mice were immunized with ovalbumin. After 14 days, the animals were challenged with aerosolized ovalbumin. After 72 hours the secretagogue, methacholine was delivered by aerosolization. The test peptides ([…] of 100 µM solution) were administered by intratracheal route 30 min, 60 min, or 120 min prior to methacholine challenge. The animals were sacrificed and BAL performed for analysis of secreted mucin The results of this experiment are given in Table VI.

[4] = Qualitative solubility of test peptides in 0.5 N saline; type: physicochemical; details: pH 6.5, 20° C. (table title)
How it was run: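 Weighed peptide (1 to 5 mg) titrated with 25 μL aliquots of 0.5 N saline, pH 6.5, at 25° C until dissolution judged visually. Solubility calculated from volume needed; complete dissolution in first aliquot reported as greater than, non-dissolution as less than, the calculated value.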

nasal mucus secretion = test: Mucus secretion in upper respiratory tract of primates (nasal lavage, ELISA); type: in vivo; details: rhesus monkeys; 2.0 mL of 140 μM solution in right nostril; nasal lavage 1 hour after treatment
Description: The purpose of the experiment was to determine the ability of MANS peptide to inhibit mucus secretion in the upper respiratory tract of healthy adult rhesus monkeys. The test used is a standard method for evaluation of nasal secretory activity, and non-human primates typically provide a good correlation to activity in man.
A total of 17 healthy young adult male rhesus monkeys without any prior history of rhinitis were used for the experiment. None of the monkeys had rhinitis before or after the study. The nasal mucus secretion of each monkey was measured in its left nostril prior to any treatment. This value is considered 100% mucus secretion. The monkeys were then randomly divided into the following 4 groups: • Group 1: Normal saline, control (n=3); • Group 2: Sodium acetate, solvent control (n=4); • Group 3: RNS peptide, negative control (n=5); and • Group 4: MANS peptide, test peptide (n=5).
Saline was placed in the left nostril of all 17 animals prior to any treatment. The right nostrils were treated with 2.0 mL of either saline, sodium acetate, RNS peptide or the MANS peptide. Thus, each animal had its own internal control. Nasal lavage was performed on both nostrils of each animal 1 hour after the treatment with the test articles. All lavages were immediately frozen at −80° C. and analyzed for mucus content by ELISA. […]

[5] = Solubility in sodium acetate, pH 7; type: physicochemical; details: 120 min sodium acetate, pH 7 (so in the source)
HBE1 cells = test: PMA-induced mucin hypersecretion in human bronchial epithelial cells (air/liquid interface, MUC5A ELISA); type: cell-based; details: pretreatment with 25 μM peptide, then 0.5 μM PMA
Method: HBE1 is a papilloma virus-transformed human bronchial epithelial cell line capable of mucin secretion when cultured in air/liquid interface. HBE1 cells were cultured in the air/liquid interface as described previously (Li et al, J. Biol. Chem., volume 276, pp 40982-40990, 2001). Briefly, HBE1 cells were cultured in air/liquid interface by seeding an appropriate number of cells in 12-well Transwell clear culture inserts (Costar, Cambridge, Mass.) that were thinly coated with rat tail collagen, type I (Collaborative Biomedical, Bedford, Mass.). Cells were initially cultured submerged in medium in a humidified 95% air, 5% CO2 environment for 5-7 days until nearly confluent. At that time, the air/liquid interface was created by removing the apical medium and feeding cells basalaterally. Medium was renewed daily thereafter. Cells were cultured for an additional 14 days to allow full differentiation. The accumulated mucin at the apical surface of the cells was removed by washing with phosphate-buffered saline, pH 7.2. To collect the baseline mucin secretion, cells were incubated for 30 min with medium alone and secreted mucin in the apical medium was collected, and quantitated by ELISA. To determine the mucin hypersecretion induced by a mucin secretagogue, cells were exposed to medium containing 0.5 μM phorbol myristate acetate, (PMA) for 30 min. and mucin was collected and quantitated by ELISA. […] Six wells were used for each test peptides and for each control. Secreted mucin in the apical medium was collected and quantitated by sandwich ELISA method using alkaline phosphatase-conjugated mucin (MUC5A) specific antibody (Zymed Laboratories, San Francisco, Calif.).

[6] = Table II, 50 μL intratracheal 15 min before methacholine
[7] = peptide intratracheal 30 min prior to methacholine challenge
[8] = peptide intratracheal 60 min prior to methacholine challenge
[9] = peptide intratracheal 120 min prior to methacholine challenge

CCCCCCCCCCCCCC(=O)NCC(=O)N[C@H](C(=O)N[C@@H](C)C(=O)N1CCC[C@H]1C(=O)N[C@@H](C)C(=O)N[C@@H](C)C(=O)N[C@@H](CCC(=O)O)C(=O)NCC(=O)N[C@@H](C)C(=O)NCC(=O)N[C@@H](C)C(=O)N[C@@H](CCC(=O)O)C(=O)N[C@H](C(=O)N[C@@H](CCCCN)C(=O)N[C@@H](CCCNC(=N)N)C(=O)N[C@@H](C)C(=O)N[C@@H](CO)C(=O)N[C@@H](C)C(=O)N[C@@H](CCC(=O)O)C(=O)N[C@@H](C)C(=O)N[C@@H](CCCCN)C(=O)N[C@@H](CCC(N)=O)C(=O)N[C@@H](C)C(=O)N[C@@H](Cc1ccccc1)C(=O)O)C(C)C)[C@@H](C)O [myr-peptide 232, reference compound] (Myristoyl-GTAPAAEGAGAEVKRASAEAKQAF-OH)
Mucin Secretion % control [1, 6]: 96 % control | Mucin Secretion % control ([1]; Table III): 81** % control | Mucin Secretion % of control [1]: 108 % of control | Mucin Secretion % of control ([2]; peptide 100 μM): 100 % of Control | Mucin Secretion % of control ([2]; peptide 140 μM): 100 % of Control | Duration of action, mucin secretion (% of Control) [3, 7]: 100 % of Control | Duration of action, mucin secretion (% of Control) [3, 8]: 100 % of Control | Duration of action, mucin secretion (% of Control) [3, 9]: 100 % of Control | solubility [4]: > 15000 µg/mL | Inhibition of mucus secretion (nasal mucus secretion): did not have any effect | Solubility in sodium acetate [5]: freely soluble

CCCCCCCCCCCCCC(=O)NCC(=O)N[C@@H](C)C(=O)N[C@@H](CCC(N)=O)C(=O)N[C@@H](Cc1ccccc1)C(=O)N[C@@H](CO)C(=O)N[C@@H](CCCCN)C(=O)N[C@H](C(=O)N[C@@H](C)C(=O)N[C@@H](C)C(=O)N[C@@H](CCCCN)C(=O)NCC(=O)N[C@@H](CCC(=O)O)C(=O)N[C@@H](C)C(=O)N[C@@H](C)C(=O)N[C@@H](C)C(=O)N[C@@H](CCC(=O)O)C(=O)N[C@@H](CCCNC(=N)N)C(=O)N1CCC[C@H]1C(=O)NCC(=O)N[C@@H](CCC(=O)O)C(=O)N[C@@H](C)C(=O)N[C@@H](C)C(=O)N[C@H](C(=O)N[C@@H](C)C(=O)O)C(C)C)[C@@H](C)O [myr-peptide 1, reference compound] (Myristoyl-GAQFSKTAAKGEAAAERPGEAAVA-OH)
Mucin Secretion % control [1, 6]: 33.8 % control | Mucin Secretion % control ([1]; Table III): 40 % control | Mucin Secretion % of control [1]: 29** % of control | Mucin Secretion % of control ([2]; peptide 10 μM): 35 % of Control | Mucin Secretion % of control ([2]; peptide 100 μM): 12 % of Control | Mucin Secretion % of control ([2]; peptide 140 μM): 8 % of Control | Duration of action, mucin secretion (% of Control) [3, 7]: 7 % of Control | Duration of action, mucin secretion (% of Control) [3, 8]: 44 % of Control | Duration of action, mucin secretion (% of Control) [3, 9]: 50 % of Control | solubility [4]: < 5000 µg/mL | Inhibition of mucus secretion (nasal mucus secretion): ~75% | Block of PMA-induced increase in mucin secretion (HBE1 cells): 100% | Solubility in sodium acetate [5]: freely soluble
